Experimental data: US12454514B2, “Quinazolinone compounds” (Cerepeut, Inc., priority 2019, dated 2025)
pIC50: −log10 of the molar value.

Test system: Molt-4 cells
Assay: CellTiter-Glo Luminescent Cell Viability Assay (growth inhibition, 72 hour incubation)
Type: cell-based
Settings: Homo sapiens, 72 hours treatment, CellTiter Glo luminescence
Text: CellTiter-Glo Luminescent Cell Viability Assay Kit was obtained from Promega. RPMI 1640 was obtained from Invitrogen. Fetal Bovine Serum (FBS) was obtained from Corning. L-glutamine was obtained from Invitrogen. 100× Penicillin-Streptomycin was obtained from HyClone. 0.05% Trypsin-EDTA (T-E) was obtained from Invitrogen. DPBS was obtained from Corning. DMSO was obtained from Sigma. Black 384 well plates were obtained from Greiner. 96-well V bottom plates were obtained from Axygen. For cell seeding on Day “−1”, the density of Molt-4 cells was adjusted according to supplier-recommended information. 50 μL cells were seeded in four 384-well-plates, and 50 μL DPBS was added to the edge wells. On Day 0, test compounds were dissolved in DMSO and stored in a nitrogen cabinet. The stock concentration of the test compounds was 120 mM. The stock concentration of the reference compounds was 10 mM. Test compounds (125 nL in DMSO) were added to the wells and serially diluted by three fold, providing 10 doses in each series with a maximum concentration of 300 μM. Equal volumes of DMSO without test compound were transferred to control rows in the well plate. Using this procedure, the DMSO concentration across the well plate was 0.25% (v/v). On Day 3 (after the cells were treated with the compounds for 72 hours), the plates were equilibrated at room temperature for approximately 30 minutes. 25 μL of CellTiter Glo reagent was added to each well, and the luminescence in each well was measured after 10 min using an ENVISION fluorescence plate reader (PerkinElmer). The calculation formula used for data analysis was: Inhibition %=(Max−Sample Value)/Max*100. Curves were fitted by Prism with a Sigmoidal dose-response (variable slope) model and generated by 4 Parameter Logistic Model or Sigmoidal Dose-Response Model, Y=Bottom+(Top−Bottom)/(1+10^((log EC50−x)*HillSlope)). To evaluate the anti-tumor activity of the compounds, the growth inhibitory effect of the compound was measured in various human cancer cell lines after 72 hour incubation. In the assays, the viability of the Molt-4 cells was greater than 85% during the initial cell plating. All the cell plates met the criteria that the coefficient of variation (CV)<10%. Observed IC50 values are summarized below, along with the observed IC50 value for reference compound 6-chloro-3-(2,4-dichloro-5-methoxyphenyl)-2-mercapto-7-methoxyquinazolin-4(3H)-one.

Row | SMILES | pIC50
1 | Cc1cc(-n2c(S)nc3ccc(Cl)cc3c2=O)c(Cl)cc1Cl [Compound 10, 6-chloro-3-(2,4-Dichloro-5-methylphenyl)-2-mercaptoquinazolin-4(3H)-one] | 4.52 to 5.52
2 | COc1cc2nc(S)n(-c3cc(OC)c(Cl)cc3Cl)c(=O)c2cc1N [Compound 8, 6-Amino-3-(2,4-dichloro-5-methoxyphenyl)-2-mercapto-7-methoxyquinazolin-4(3H)-one] | > 5.52
3 | COc1cc(-n2c(S)nc3cc(C4CC4)c(Cl)cc3c2=O)c(Cl)cc1Cl [Compound 11, 6-Chloro-7-cyclopropyl-3-(2,4-dichloro-5-methoxyphenyl)-2-mercaptoquinazolin-4(3H)-one] | 4.52 to 5.52
4 | COc1cc2nc(S)n(-c3cc(F)c(Cl)cc3Cl)c(=O)c2cc1Cl [Compound 4, 6-Chloro-3-(2,4-dichloro-5-fluorophenyl)-2-mercapto-7-methoxyquinazolin-4(3H)-one] | 4.52 to 5.52
5 | COc1cc(-n2c(S)nc3cc(OC)c(Cl)cc3c2=O)c(Cl)cc1Cl [Ref. 1, 6-chloro-3-(2,4-dichloro-5-methoxyphenyl)-2-mercapto-7-methoxyquinazolin-4(3H)-one, reference compound] | 4.52 to 5.52
6 | COc1cc(-n2c(S)nc3cc(OC)c(C4CC4)cc3c2=O)c(Cl)cc1Cl [Compound 9, 6-Cyclopropyl-3-(2,4-dichloro-5-methoxyphenyl)-2-mercapto-7-methoxyquinazolin-4(3H)-one] | > 5.52
7 | COc1cc(-n2c(S)nc3cc(OC)c(OC)cc3c2=O)c(Cl)cc1Cl [Compound 6, 3-(2,4-dichloro-5-methoxyphenyl)-2-mercapto-6,7-dimethoxyquinazolin-4(3H)-one] | > 5.52
8 | C=Cc1c(OC)c(Cl)cc2c(=O)n(-c3cc(OC)c(Cl)cc3Cl)c(S)nc12 [Compound 12, 6-Chloro-3-(2,4-dichloro-5-methoxyphenyl)-2-mercapto-7-methoxy-8-vinylquinazolin-4(3H)-one] | < 4.52
9 | COc1cc2nc(S)n(-c3cc(OC)c(Cl)cc3Cl)c(=O)c2cc1O [Compound 7, 3-(2,4-Dichloro-5-methoxyphenyl)-6-hydroxy-2-mercapto-7-methoxyquinazolin-4(3H)-one] | > 5.52
10 | COc1cc(-n2c(S)nc3c(C4CC4)c(OC)c(Cl)cc3c2=O)c(Cl)cc1Cl [Compound 13, 6-Chloro-8-cyclopropyl-3-(2,4-dichloro-5-methoxyphenyl)-2-mercapto-7-methoxyquinazolin-4(3H)-one] | 4.52 to 5.52
11 | COc1ccc2c(=O)n(-c3cc(OC)c(Cl)cc3Cl)c(S)nc2c1 [Compound 5, 3-(2,4-dichloro-5-methoxyphenyl)-2-mercapto-7-methoxyquinazolin-4(3H)-one] | 4.52 to 5.52
12 | COc1cc(-n2c(S)nc3cc(OC)c(Cl)cc3c2=O)c(Cl)cc1F [Compound 2, 6-Chloro-3-(2-chloro-4-fluoro-5-methoxyphenyl)-2-mercapto-7-methoxyquinazolin-4(3H)-one] | 4.52 to 5.52
13 | COc1cc(-n2c(S)nc3cc(OC)c(Cl)cc3c2=O)c(OC)cc1Cl [Compound 3, 6-Chloro-3-(4-chloro-2,5-dimethoxyphenyl)-2-mercapto-7-methoxyquinazolin-4(3H)-one] | 4.52 to 5.52
14 | COc1cc2nc(S)n(-c3cc(OC)c(OC)cc3Cl)c(=O)c2cc1Cl [Compound 1, 6-Chloro-3-(2-chloro-4,5-dimethoxyphenyl)-2-mercapto-7-methoxyquinazolin-4(3H)-one] | < 4.52
